Results taken from publication PMC8032764 (Scientific Reports, 2021).
Like-named read-outs stand apart in the source and are kept apart here.

Key:
Muscarinic M4 = system: T1, Muscarinic M4; test: Cerep binding; set-up: species or system human; details: 10 μM; [3H]4-DAMP; hum. recomb. (CHO)
T1 construct: host or cells: CHO

Neuropeptide Y1 = system: T2, Neuropeptide Y1; test: Cerep binding; set-up: species or system human; details: 10 μM; [125I]peptide YY; hum., SK-N-MC cells
T2 construct: purchased Eurofins Cerep

Galanin 2 = system: T3, Galanin 2; test: Cerep binding; set-up: species or system human; details: 10 μM; [125I]galanin; hum. recomb. (CHO)
T3 construct: purchased Eurofins Cerep

Dopamine D1 = system: T4, Dopamine D1; test: Cerep binding; set-up: species or system human; details: 10 μM; [3H]SCH 23390; hum. recomb. (CHO)
T4 construct: host or cells: CHO

[1] = target: T5, human GABAA α1β3γ2 receptors (Homo sapiens, UniProt P14867+P18507); test: [3H]-flumazenil competition binding, HEK293 membranes; details: 1 nM [3H]-flumazenil
T5 construct: expressed in transfected cells; host or cells: HEK293-EBNA, transient

Prostanoid EP4 = system: T6, Prostanoid EP4; test: Cerep binding; set-up: species or system human; details: 10 μM; [3H]PGE2; hum. recomb. (CHO)
T6 construct: host or cells: CHO

dogs = test: GLP toxicology and safety pharmacology, daily oral administration; format: in vivo, dog
[2] = Plasma levels, object retrieval task; format: in vivo, Macaca fascicularis; details: cynomolgus monkey, oral; for concentration at 180 min: read-out: total plasma concentration
Method: Twelve cynomolgus macaques were presented with a clear acrylic box with one open side baited with a food treat, as described previously[14],[38]. The test is easy when the open side of the box is directed towards the subject and difficult when the open sides face other directions. […] Compound doses were administered in a pseudorandom order. Administration of dose and behavioral measurements were completed blind. Data were analysed using a one-way repeated measures ANOVA followed, in significant cases, by a post hoc Dunnett’s test. Plasma samples were collected from the same three subjects at each dose group at 3 h post administration. […] The calibration range was from 1.0 to 5000 ng/mL. After protein precipitation with ethanol, the sample solution was injected onto a Gemini C18 trapping column (2 × 10 mm; Phenomenex, Torrance, CA, USA) and polar endogenous compounds and salts were rinsed off. […] A drug analogue was used as an internal standard.

Neurokinin NK2 = system: T7, Neurokinin NK2; test: Cerep binding; set-up: species or system human; details: 10 μM; [125I]NKA; hum. recomb. (CHO)
T7 construct: purchased Eurofins Cerep

[3] = Pharmacokinetics, single oral dosing; format: in vivo, Cynomolgus macaque; details: cynomolgus monkey, plasma, 10 mg/kg oral, microsuspension, n = 3 male
Method: Concentrations were chosen to achieve the desired doses by administering 5 mL/kg to rats and 2.5 mL/kg to NHPs via oral gavage.
The calibration range was from 1.0 to 5000 ng/mL. After protein precipitation with ethanol, the sample solution was injected onto a Gemini C18 trapping column (2 × 10 mm; Phenomenex, Torrance, CA, USA) and polar endogenous compounds and salts were rinsed off. Analytical separation was performed on an Atlantis T3 column (2.1 × 50 mm) (Waters, Milford, MA, USA), using methanol/water containing 0.1% formic acid as mobile phase. A drug analogue was used as an internal standard.

[4] = system: T8, Vasoactive intestinal peptide PAC1 (PACAP); test: Cerep binding; set-up: species or system human; details: 10 μM; [125I]PACAP1-27; hum. recomb. (CHO)
T8 construct: host or cells: CHO

[5] = Pharmacokinetics, single intravenous dosing; format: in vivo; details: Wistar, rat, plasma, 4.3 mg/kg i.v., 2 male
Serotonin 5-HT5a = system: T9, Serotonin 5-HT5a; test: Cerep binding; set-up: species or system human; details: 10 μM; [3H]LSD; hum. recomb. (CHO)
T9 construct: purchased Eurofins Cerep

Purinergic P2X = test: Cerep binding; details: 10 μM; [3H]α,β-MeATP; rat urinary bladder
Muscarinic M1 = system: T10, Muscarinic M1; test: Cerep binding; set-up: species or system human; details: 10 μM; [3H]pirenzepine; hum. recomb. (CHO)
T10 construct: host or cells: CHO

[6] = Pharmacokinetics, single intravenous dosing; format: in vivo; details: Beagle, dog, plasma, 1.0 mg/kg i.v.
[7] = Plasma exposure in EEG study; format: in vivo; details: human, oral, 240 mg twice daily, mean ± SD
Opioid δ2 = system: T11, Opioid δ2; test: Cerep binding; set-up: species or system human; details: 10 μM; [3H]DADLE; hum. recomb. (CHO)
T11 construct: host or cells: CHO

Histamine H2 = system: T12, Histamine H2; test: Cerep binding; set-up: species or system human; details: 10 μM; [125I]APT; hum. recomb. (CHO)
T12 construct: host or cells: CHO

Bombesin (non-selective) = test: Cerep binding; details: 10 μM; [125I][Tyr4]bombesin; rat cerebral cortex
[8] = system: Adrenergic α2 (non-selective); test: Cerep binding; details: 10 μM; [3H]RX 821002; rat cerebral cortex
[9] = system: T13, Calcitonin gene related peptide (CGRP); test: Cerep binding; set-up: species or system human; details: 10 μM; [125I]hCGRPα; hum. recomb. (CHO)
T13 construct: purchased Eurofins Cerep

[10] = Plasma concentration in PET study; format: in vivo; details: human
Method: The study was single-blind, i.e., subjects were blinded to dose. Blood sampling was performed at four different timepoints starting 30 min before the post dose PET scan.

Chemokine CCR1 = system: T14, Chemokine CCR1; test: Cerep binding; set-up: species or system human; details: 10 μM; [125I]MIP-1a; hum. recomb. (HEK-293)
T14 construct: purchased Eurofins Cerep

For `Cc1onc(-c2ccc(F)cc2)c1COc1ccc(C(=O)N2CCS(=O)(=O)CC2)cn1` [basmisanil], the “% Inhibition” value (Muscarinic M4) was -4%, the “% Inhibition” value (Neuropeptide Y1) was 0% and the “% Inhibition” value (Galanin 2) was -1%. The “% Inhibition” value (Dopamine D1) was 0%, the Ki [1] was 1030 ± 54 nM and the “% Inhibition” value (Prostanoid EP4) was 3%. For the same compound, the “exposures with lack of clinical signs and convulsion symptoms” value (dogs; GLP toxicology studies in dogs) was “up to 4590 ng/mL”, the “convulsions and EEG alterations” value (dogs; daily oral, supra-therapeutic plasma exposures, up to 39 weeks) was “no convulsions and no EEG alterations” and the concentration at 180 min ([2]; 1 mg/kg p.o.) was 257 ng/mL. It also gave a concentration at 180 min ([2]; 3 mg/kg p.o.) of 1020 ng/mL, a concentration at 3 h ([2]; 3 mg/kg p.o., read-out: free plasma concentration) of 156 nM and a concentration at 180 min ([2]; 10 mg/kg p.o.) of 2260 ng/mL. The concentration at 180 min ([2]; 30 mg/kg p.o.) was 2850 ng/mL, the “% Inhibition” value (Neurokinin NK2) was 7% and the bioavailability [3] was 48%. It also gave a Tmax ([3]; median, read-out: Tmax (range)) of 1.5 h, an AUC(0-t) ([3]; ± standard deviation) of 27500 ng·h/mL and a Cmax ([3]; ± standard deviation) of 3650 ± 110 ng/mL. The “% Inhibition” value [4] was -16%, the half-life [5] was 1.2 h and the clearance ([5]; read-out: Total CL) was 54 mL/min/kg. The Vd ([5]; read-out: Vss) was 2.9 L/kg, the “% Inhibition” value (Serotonin 5-HT5a) was 5% and the “% Inhibition” value (Purinergic P2X) was -7%. The “% Inhibition” value (Muscarinic M1) was 6%, the half-life ([6]; n=3) was 9.8 ± 0.8 h and the clearance ([6]; n=3, read-out: Total CL) was 2.2 ± 0.2 mL/min/kg. The Vd ([6]; n=3, read-out: Vss) was 1.7 ± 0.2 L/kg, the concentration at 1 h ([7]; day 14, 1 h post morning dose) was 3280 ± 888 ng/mL and the concentration at 4 h ([7]; day 14, 4 h post morning dose) was 4030 ± 842 ng/mL. For the same compound, the “% Inhibition” value (Opioid δ2) was 8%, the “% Inhibition” value (Histamine H2) was 8% and the “% Inhibition” value (Bombesin (non-selective)) was -24%. The “% Inhibition” value [8] was -8%, the “% Inhibition” value [9] was -6% and the concentration at 3.75 h ([10]; subject 11010, 40 mg, 3.75 h prior to scan) was 592 ng/mL. It also gave a concentration at 3.12 h ([10]; subject 11020, 160 mg, 3.12 h prior to scan) of 2280 ng/mL, a concentration at 3 h ([10]; subject 11021, 160 mg, 3.00 h prior to scan) of 2550 ng/mL and a concentration at 2.63 h ([10]; subject 13010, 40 mg, 2.63 h prior to scan) of 422 ng/mL. It also gave a concentration at 4.75 h ([10]; subject 13030, 1000 mg, 4.75 h prior to scan) of 2200 ng/mL, a concentration at 4.77 h ([10]; subject 13031, 1000 mg, 4.77 h prior to scan) of 3350 ng/mL and a concentration at 1.48 h ([10]; subject 13040, 20 mg, 1.48 h prior to scan) of 111 ng/mL. The concentration at 2.2 h ([10]; subject 13041, 20 mg, 2.20 h prior to scan) was 398 ng/mL, the concentration at 2.43 h ([10]; subject 13050, 80 mg, 2.43 h prior to scan) was 1000 ng/mL and the “% Inhibition” value (Chemokine CCR1) was -2%.
